Measurements reported in patent publication US4492693A, “Benzothienylglycyl cephalosporin derivatives” (priority 1983, dated 1985).
Values after ≈ are worked out from the molar mass of the structure shown. Like-named read-outs stand apart in the source and are kept apart here.

What was measured:
Type in all cases: cell-based
Bacteroides fragilis = test: Susceptibility of Anaerobic Bacteroides Isolates by the Agar-Dilution Method (Table III); conditions: 24 h
Source text: (§1) A typical and preferred compound provided by this invention is 7-(3-benzothienyl)glycylamido-3-methyl-3-cephem-4-carboxylic acid, the compound illustrated in Example 9. The antibacterial activity of this compound has been determined in standard in vitro agar dilution assays against a variety of gram positive and gram negative microorganism. The following Tables present typical minimum inhibitory concentrations (MIC's) in μg/ml for several compounds of the invention when evaluated against the indicated microorganisms. MIC's for several known compounds are also presented for comparison.
(§2) Susceptibility of Anaerobic Bacteroides Isolates by the
(§3) Agar-Dilution Method MIC (μg/ml) readings 24 hrs. after incubation

[1] = test system: Bacteroides thetaiotaomicron; test: as above; conditions: 24 h
Source text: as §1, §2, §3

Bacteroides corrodens = test: as above; conditions: Eikenella corrodens; strain 1874; readings 24 hrs. after incubation
Source text: as §1, §2, §3

H. influ. = test: Agar Dilution MIC (Table I); conditions: read-out: Agar Dilution MIC
Klebsiella = test: Agar Dilution MIC (Table I); conditions: Klebsiella, read-out: Agar Dilution MIC
Strep. PN = test: Agar Dilution MIC (Table I); conditions: strain PARK
Strep. D = test: Agar Dilution MIC (Table I); conditions: read-out: Agar Dilution MIC
Source text: as §1
Agar Dilution MIC (μg/ml)

H. influenzae = test: Expanded Spectrum MIC (Table II); conditions: Haemophilus influenzae
Source text: as §1
(§4) Expanded Spectrum MIC (μg/ml)

Staph. aureus = test: Expanded Spectrum MIC (Table II); conditions: Staphylococcus aureus
Source text: as §1, §4

E. coli = test: Agar Dilution MIC (Table I); conditions: Escherichia coli
Strep. A = test: Agar Dilution MIC (Table I); conditions: strain C203; read-out: Agar Dilution MIC
[2] = strain 9, readings 24 hrs. after incubation
[3] = strain 103, readings 24 hrs. after incubation
[4] = strain 104, readings 24 hrs. after incubation
[5] = strain 106, readings 24 hrs. after incubation
[6] = strain 107, readings 24 hrs. after incubation
[7] = strain 108, readings 24 hrs. after incubation
[8] = strain 110, readings 24 hrs. after incubation
[9] = strain 111, readings 24 hrs. after incubation
[10] = strain 1877, readings 24 hrs. after incubation
[11] = strain 1438, readings 24 hrs. after incubation
[12] = strain 1900A, readings 24 hrs. after incubation

`CC1=C(C(=O)O)N2C(=O)C(NC(=O)[C@H](N)c3csc4cccc(F)c34)C2SC1` (stereo partly drawn) [Ex. 19, D-7-(4-Fluoro-3-benzothienyl)glycylamido-3-methyl-3-cephem-4-carboxylic acid] showed an MIC (Bacteroides fragilis; [2]) of 8 µg/mL (≈ 19 µM), an MIC (Bacteroides fragilis; [3]) of 32 µg/mL (≈ 75.9 µM) and an MIC (Bacteroides fragilis; [4]) of 16 µg/mL (≈ 38 µM). The MIC (Bacteroides fragilis; [5]) was 8 µg/mL (≈ 19 µM), the MIC (Bacteroides fragilis; [6]) was 8 µg/mL (≈ 19 µM) and the MIC (Bacteroides fragilis; [7]) was 16 µg/mL (≈ 38 µM). It also gave an MIC (Bacteroides fragilis; [8]) of 8 µg/mL (≈ 19 µM), an MIC (Bacteroides fragilis; [9]) of 64 µg/mL (≈ 152 µM) and an MIC (Bacteroides fragilis; [10]) of 8 µg/mL (≈ 19 µM). The MIC [1, 11] was 16 µg/mL (≈ 38 µM), the MIC [1, 12] was 32 µg/mL (≈ 75.9 µM) and the MIC (Bacteroides corrodens) was 32 µg/mL (≈ 75.9 µM). For the same molecule, the MIC (H. influ.; strain 76) was 4 µg/mL (≈ 9.49 µM), the MIC (H. influ.; strain C.L.) was 16 µg/mL (≈ 38 µM) and the MIC (Klebsiella; strain KAE) was 128 µg/mL (≈ 304 µM). For the same molecule, the MIC (Klebsiella; strain X26) was 16 µg/mL (≈ 38 µM), the MIC (Klebsiella; strain X68) was 128 µg/mL (≈ 304 µM) and the MIC (Strep. PN) was 4 µg/mL (≈ 9.49 µM). The MIC (Strep. D; strain 2041) was 128 µg/mL (≈ 304 µM), the MIC (Strep. D; strain X66) was 128 µg/mL (≈ 304 µM) and the MIC (H. influenzae; strain 76) was 4 µg/mL (≈ 9.49 µM). It also gave an MIC (H. influenzae; strain 105) of 4 µg/mL (≈ 9.49 µM), an MIC (H. influenzae; strain 158) of 4 µg/mL (≈ 9.49 µM) and an MIC (H. influenzae; strain 164) of 4 µg/mL (≈ 9.49 µM). The MIC (H. influenzae; strain 169) was 4 µg/mL (≈ 9.49 µM), the MIC (H. influenzae; strain 171) was 4 µg/mL (≈ 9.49 µM) and the MIC (H. influenzae; strain 312) was 8 µg/mL (≈ 19 µM). For the same molecule, the MIC (H. influenzae; strain 1683) was 2 µg/mL (≈ 4.75 µM), the MIC (H. influenzae; strain 1930) was 16 µg/mL (≈ 38 µM) and the MIC (H. influenzae; strain 4842) was 8 µg/mL (≈ 19 µM). It also gave an MIC (H. influenzae; strain C.L.) of 16 µg/mL (≈ 38 µM), an MIC (H. influenzae; strain HESS) of 16 µg/mL (≈ 38 µM) and an MIC (H. influenzae; strain M366) of 64 µg/mL (≈ 152 µM). For the same molecule, the MIC (H. influenzae; strain M370) was 4 µg/mL (≈ 9.49 µM), the MIC (H. influenzae; strain M371) was 4 µg/mL (≈ 9.49 µM) and the MIC (H. influenzae; strain R465) was 64 µg/mL (≈ 152 µM). It also gave an MIC (H. influenzae; strain STEL) of 64 µg/mL (≈ 152 µM), an MIC (Staph. aureus; strain S224) of 4 µg/mL (≈ 9.49 µM) and an MIC (Staph. aureus; strain S225) of 4 µg/mL (≈ 9.49 µM). The MIC (Staph. aureus; strain S226) was 4 µg/mL (≈ 9.49 µM), the MIC (Staph. aureus; strain S227) was 4 µg/mL (≈ 9.49 µM) and the MIC (Staph. aureus; strain S228) was 4 µg/mL (≈ 9.49 µM). It also gave an MIC (Staph. aureus; strain S229) of 8 µg/mL (≈ 19 µM), an MIC (Staph. aureus; strain S230) of 4 µg/mL (≈ 9.49 µM) and an MIC (Staph. aureus; strain S231) of 2 µg/mL (≈ 4.75 µM). The MIC (Staph. aureus; strain S234) was 4 µg/mL (≈ 9.49 µM), the MIC (Staph. aureus; strain S237) was 4 µg/mL (≈ 9.49 µM) and the MIC (Staph. aureus; strain S238) was 8 µg/mL (≈ 19 µM). The MIC (Staph. aureus; strain S239) was 8 µg/mL (≈ 19 µM), the MIC (E. coli; strain EC14) was 128 µg/mL (≈ 304 µM) and the MIC (E. coli; strain N10) was 128 µg/mL (≈ 304 µM). It also gave an MIC (E. coli; strain TEM) of 128 µg/mL (≈ 304 µM) and an MIC (Strep. A) of 1 µg/mL (≈ 2.37 µM).
Work on `CO[C@@]1(NC(=O)C(C(=O)O)c2ccc(O)cc2)C(=O)N2C(C(=O)O)=C(CSc3nnnn3C)CO[C@@H]21` (some centres unmarked) [moxalactam, reference compound] yielded an MIC (Bacteroides fragilis; [2]) of 0.5 µg/mL (≈ 0.961 µM), an MIC (Bacteroides fragilis; [3]) of 4 µg/mL (≈ 7.69 µM) and an MIC (Bacteroides fragilis; [4]) of 0.5 µg/mL (≈ 0.961 µM). It also gave an MIC (Bacteroides fragilis; [5]) of 1 µg/mL (≈ 1.92 µM), an MIC (Bacteroides fragilis; [6]) of 1 µg/mL (≈ 1.92 µM) and an MIC (Bacteroides fragilis; [7]) of 0.5 µg/mL (≈ 0.961 µM). For the same molecule, the MIC (Bacteroides fragilis; [8]) was 0.5 µg/mL (≈ 0.961 µM), the MIC (Bacteroides fragilis; [9]) was 8 µg/mL (≈ 15.4 µM) and the MIC (Bacteroides fragilis; [10]) was 2 µg/mL (≈ 3.84 µM). The MIC [1, 11] was 2 µg/mL (≈ 3.84 µM), the MIC [1, 12] was 64 µg/mL (≈ 123 µM) and the MIC (Bacteroides corrodens) was 8 µg/mL (≈ 15.4 µM).
